Data on eleven compounds can be found in ChEMBL document CHEMBL4043139, “Fluoro and pentafluorothio analogs of the antitumoral curcuminoid EF24 with superior antiangiogenic and vascular-disruptive effects” (Bioorg Med Chem, 2017).

One experiment deals with DLD-1. The experiment in a line: Cytotoxicity against human DLD1 cells after 72 hrs by MTT assay. Format: functional, cell-based. As to conditions: for IC50: DLD-1, 72 h. In general terms: Formazan colour is commonly taken as a measure of viable cells.
A short description of experiment [1]: (§1) Cytotoxicity against human KB-V1/Vbl cells after 72 hrs by MTT assay. Format: functional, cell-based.
Another experiment relates to KB-V1/Vbl. The experiment is described as §1. The class given is functional, cell-based.
Another experiment concerns 518A2. The experiment in a line: Cytotoxicity against human 518A2 cells after 72 hrs by MTT assay. Format: functional, cell-based. As to conditions: for IC50: 518A2, 72 h.
The nature of experiment [2]: (§2) Cytotoxicity against human MCF7/Topo cells after 72 hrs by MTT assay. The class given is functional, cell-based.
Another experiment concerns MCF7/Topo. The experiment is described as §2. Format: functional, cell-based.
The next experiment has as its system PANC-1. The experiment in a line: Cytotoxicity against human PANC1 cells after 72 hrs by MTT assay. Format: functional, cell-based. As to conditions: for IC50: PANC-1, 72 h.
The next experiment concerns HT-29. The experiment in a line: Cytotoxicity against human HT-29 cells after 72 hrs by MTT assay. The class given is functional, cell-based. As to conditions: for IC50: HT-29, 72 h.
Another experiment relates to HCT-116. The experiment in a line: Cytotoxicity against human HCT116 cells after 72 hrs by MTT assay. Format: functional, cell-based. As to conditions: for IC50: HCT-116, 72 h.
Another experiment has as its system U-87MG ATCC. The experiment in a line: (§3) Cytotoxicity against human U87 cells after 72 hrs by MTT assay. The class given is functional, cell-based.
A short description of experiment [3]: as §3. The class given is functional, cell-based, U-87MG ATCC. As to conditions: U-87 MG.

A word on the IC50: it is the concentration at which inhibition is half-maximal. The low end stands for greater potency, the high end for weaker potency.

Take `CCN1C/C(=C\c2cc(F)cc(F)c2)C(=O)/C(=C/c2cc(F)cc(F)c2)C1`: the Activity result with DLD-1, in the experiment with KB-V1/Vbl, in the experiment on 518A2, in the experiment on MCF7/Topo, with PANC-1 and in the experiment on HT-29 was “Dose-dependent effect” in each case. Further, in the experiment on HCT-116, the Activity result is “Dose-dependent effect”. In addition, the IC50 with DLD-1 was 640 nM; in [1], 2700 nM; in the experiment on 518A2, 3300 nM; in experiment [2] it was 1000 nM; in the experiment on PANC-1 it was 1100 nM; in the experiment on HT-29, 2100 nM. This compound also yielded an IC50 in the experiment with HCT-116 of 550 nM.
For `CCN1C/C(=C\c2cc(F)c(F)cc2F)C(=O)/C(=C/c2cc(F)c(F)cc2F)C1`, the Activity entry in the experiment with DLD-1, with KB-V1/Vbl, in the experiment with 518A2, with MCF7/Topo, with PANC-1 and with HT-29 was “Dose-dependent effect” in each case. Besides, the Activity entry in the experiment with HCT-116 was “Dose-dependent effect”. The IC50 in the experiment with DLD-1 was 520 nM; in [1], 640 nM; with 518A2, 1500 nM; in [2], 1100 nM; in the experiment with PANC-1 it was 830 nM; in the experiment with HT-29, 690 nM. This compound registered an IC50 in the experiment with HCT-116 of 510 nM.
With `O=C(/C=C/c1ccc(S(F)(F)(F)(F)F)cc1)/C=C/c1ccc(S(F)(F)(F)(F)F)cc1`, the Activity entry in the experiment with DLD-1, in the experiment with KB-V1/Vbl, in the experiment with 518A2, with MCF7/Topo, in the experiment with U-87MG ATCC and in the experiment on PANC-1 was “Dose-dependent effect” throughout. For the same compound, the Activity result with HT-29 and in the experiment on HCT-116 was “Dose-dependent effect” in each case. Also, the IC50 in the experiment on DLD-1 was 3200 nM; in experiment [1] it was 3600 nM; in the experiment with 518A2, 4400 nM; in experiment [2] it was 3400 nM; in experiment [3] it was 8700 nM; with PANC-1 it was 3100 nM. Further, the IC50 with HT-29 came to 1800 nM; with HCT-116 it was 1000 nM.
For the compound `O=C1/C(=C/c2ccc(S(F)(F)(F)(F)F)cc2)CCC/C1=C\c1ccc(S(F)(F)(F)(F)F)cc1`, the Activity entry with DLD-1, in the experiment on KB-V1/Vbl, in the experiment with 518A2, with MCF7/Topo, in the experiment on U-87MG ATCC and with PANC-1 was “Dose-dependent effect” each time. Moreover, the Activity result with HT-29 and in the experiment with HCT-116 was “Dose-dependent effect” throughout. The IC50 in the experiment with DLD-1 was 860 nM; in experiment [1], 1900 nM; in the experiment on 518A2, 1800 nM; in experiment [2], 1800 nM; in experiment [3], 3200 nM; in the experiment with PANC-1, 2000 nM. Also, the IC50 in the experiment on HT-29 was 1100 nM; in the experiment with HCT-116, 710 nM.
In the case of `CCN1C/C(=C\c2c(F)cc(F)cc2F)C(=O)/C(=C/c2c(F)cc(F)cc2F)C1`, the Activity result with DLD-1, in the experiment on KB-V1/Vbl, in the experiment on 518A2, in the experiment with MCF7/Topo, in the experiment on PANC-1 and in the experiment with HT-29 was “Dose-dependent effect” in each case. Besides, the Activity entry with HCT-116 is “Dose-dependent effect”. Moreover, the IC50 stood at 1400 nM with DLD-1; 1200 nM in experiment [1]; 2000 nM in the experiment with 518A2; 2100 nM in experiment [2]; 1300 nM in the experiment with PANC-1; 2000 nM in the experiment on HT-29. Moreover, the half-inhibitory concentration (IC50) in the experiment with HCT-116 is 1100 nM.
As to `CN1C/C(=C\c2ccc(F)c(F)c2)C(=O)/C(=C/c2ccc(F)c(F)c2)C1`, the Activity entry in the experiment on DLD-1, in the experiment on KB-V1/Vbl, in the experiment on 518A2, with MCF7/Topo, in the experiment on PANC-1 and with HT-29 was “Dose-dependent effect” throughout. Moreover, in the experiment on HCT-116, the Activity result is “Dose-dependent effect”. For the same compound, the IC50 with DLD-1 came out at 470 nM; in [1], 990 nM; with 518A2 it was 1500 nM; in experiment [2], 1300 nM; with PANC-1, 1500 nM; in the experiment with HT-29 it was 1500 nM. In the experiment with HCT-116, this compound registered an IC50 of 510 nM.
In the case of `CCN1C/C(=C\c2ccc(F)cc2F)C(=O)/C(=C/c2ccc(F)cc2F)C1`, the Activity entry in the experiment with DLD-1, in the experiment with KB-V1/Vbl, in the experiment with 518A2, in the experiment on MCF7/Topo, in the experiment with PANC-1 and in the experiment on HT-29 was “Dose-dependent effect” throughout. For the same compound, the Activity entry with HCT-116 was “Dose-dependent effect”. The IC50 in the experiment on DLD-1 was determined as 960 nM; in experiment [1], 1200 nM; with 518A2, 2400 nM; in experiment [2], 1800 nM; with PANC-1 it was 2300 nM; in the experiment with HT-29, 3100 nM. The compound also registered an IC50 in the experiment with HCT-116 of 2000 nM.
Regarding `O=C1/C(=C/c2ccc(F)c(F)c2)CSC/C1=C\c1ccc(F)c(F)c1`, the Activity result in the experiment with DLD-1, with KB-V1/Vbl, with 518A2, with MCF7/Topo, with U-87MG ATCC and with PANC-1 was “Dose-dependent effect” throughout. The Activity result in the experiment on HT-29 and with HCT-116 was “Dose-dependent effect” each time. Also, the IC50 was 1800 nM in the experiment on DLD-1; 760 nM in experiment [1]; 1500 nM with 518A2; 1600 nM in experiment [2]; 2300 nM in experiment [3]; 2100 nM with PANC-1. In addition, the results for the IC50 in the experiment with HT-29 and in the experiment with HCT-116 were 1300 nM and 2000 nM, respectively.
Regarding `O=C1/C(=C/c2ccc(S(F)(F)(F)(F)F)cc2)CSC/C1=C\c1ccc(S(F)(F)(F)(F)F)cc1`, the Activity result in the experiment on DLD-1, in the experiment with KB-V1/Vbl, in the experiment on 518A2, in the experiment with MCF7/Topo, in the experiment on U-87MG ATCC and in the experiment with PANC-1 was “Dose-dependent effect” in each case. Besides, the Activity entry in the experiment with HT-29 and in the experiment with HCT-116 was “Dose-dependent effect” each time. In addition, the half-inhibitory concentration (IC50) with DLD-1 came to 750 nM; in [1] it was 570 nM; in the experiment with 518A2 it was 850 nM; in [2], 760 nM; in experiment [3], 2100 nM; in the experiment with PANC-1, 840 nM. Besides, the results for the IC50 in the experiment on HT-29 and in the experiment with HCT-116 were 980 nM and 640 nM, respectively.
Consider `CCN1C/C(=C\c2ccccc2F)C(=O)/C(=C/c2ccccc2F)C1`, for which the Activity entry with DLD-1, in the experiment with KB-V1/Vbl, in the experiment with 518A2, with MCF7/Topo, in the experiment on PANC-1 and in the experiment on HT-29 was “Dose-dependent effect” each time. For the same compound, the Activity entry in the experiment with HCT-116 was “Dose-dependent effect”. The IC50 came out at 930 nM with DLD-1; 3100 nM in experiment [1]; 1800 nM with 518A2; 2000 nM in experiment [2]; 1700 nM in the experiment with PANC-1; 5200 nM in the experiment with HT-29. Besides, the IC50 in the experiment on HCT-116 turned out to be 1800 nM.
Take `CN1C/C(=C\c2ccccc2F)C(=O)/C(=C/c2ccccc2F)C1`: the Activity result with DLD-1, in the experiment with KB-V1/Vbl, in the experiment with 518A2, with MCF7/Topo, with PANC-1 and with HT-29 was “Dose-dependent effect” throughout. The Activity entry with HCT-116 was “Dose-dependent effect”. Besides, the IC50 was 810 nM with DLD-1; 1800 nM in [1]; 1800 nM in the experiment with 518A2; 2300 nM in [2]; 2200 nM with PANC-1; 2200 nM with HT-29. Further, in the experiment with HCT-116, it took 1300 nM to reach half-maximal inhibition (IC50).
